Assay results from patent US4740233A, “Substituted 1,2,4-triazolo[1,5-a]-pyrimidine-2-sulfonamides and compositions and methods of controlling undesired vegetation and suppressing the nitrification of ammonium nitrogen in soil” (The Dow Chemical Company, priority 1986, dated 1988).

Experiments:
sugar beet = assay: Preemergent control of plant species; format: in vivo, Beta saccharifera; conditions: Beta vulgaris, pre-emergence, 336 h; 0.25 lb/acre; read-out: percent preemergent control
Procedure, shortened: (§1)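 Preemergent application of aqueous emulsions at rates given in the table, uniformly over seeded greenhouse soil. Untreated (water) beds as comparison; rating after 2 weeks as reduction in growth.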

annual morning glory = assay: Preemergent control of plant species; format: in vivo, Ipomoea spp.; conditions: Ipomoea, pre-emergence, 336 h; 0.25 lb/acre; read-out: percent preemergent control
Procedure, shortened: as §1

cotton = assay: Preemergent control of plant species; format: in vivo, Gossypium spp.; conditions: Gossypium hirsutum, pre-emergence, 336 h; 0.25 lb/acre; read-out: percent preemergent control
Procedure, shortened: as §1

rice = assay: Preemergent control of plant species; format: in vivo, Oryza sativa; conditions: Oryza sativa, pre-emergence, 336 h; 0.25 lb/acre; read-out: percent preemergent control
Procedure, shortened: as §1

velvetleaf = assay: Preemergent control of plant species; format: in vivo, Abutilon theophrasti; conditions: Abutilon theophrasti, pre-emergence, 336 h; 0.25 lb/acre; read-out: percent preemergent control
Procedure, shortened: as §1

sorghum = assay: Preemergent control of plant species; format: in vivo, Sorghum vulgare; conditions: Sorghum, pre-emergence, 336 h; 0.25 lb/acre; read-out: percent preemergent control
Procedure, shortened: as §1

corn = assay: Preemergent control of plant species; format: in vivo, Zea mays; conditions: Zea mays, pre-emergence, 336 h; 0.25 lb/acre; read-out: percent preemergent control
Procedure, shortened: as §1

pigweed = assay: Preemergent control of plant species; format: in vivo, Amaranthus spp.; conditions: Amaranthus retroflexus, pre-emergence, 336 h; 0.25 lb/acre; read-out: percent preemergent control
Experimental: (§2) The seeds of various species of plants were planted in beds of good agricultural soil in a greenhouse. A number of compositions of the present invention, generally in the nature of an aqueous emulsion, were applied at rates listed in the table so as to deposit a predetermined amount of active ingredients uniformly throughout the surface of the bed. Another seed bed was treated only with water to serve as a control. After treatment the seed beds were maintained for two weeks under greenhouse conditions conducive for good plant growth and watered as necessary. Control refers to the reduction in growth compared to the observed results of the same untreated species.

wheat = assay: Preemergent control of plant species; format: in vivo, Triticum aestivum; conditions: Triticum aestivum, pre-emergence, 336 h; 0.25 lb/acre; read-out: percent preemergent control
Procedure, shortened: as §1

soybean = assay: Preemergent control of plant species; format: in vivo, Glycine max.; conditions: Glycine max, pre-emergence, 336 h; 0.25 lb/acre; read-out: percent preemergent control
Procedure, shortened: as §1

crabgrass = assay: Preemergent control of plant species; format: in vivo, Digitaria spp.; conditions: Digitaria sanguinalis, pre-emergence, 336 h; 0.25 lb/acre; read-out: percent preemergent control
Experimental: as §2

yellow foxtail = assay: Preemergent control of plant species; format: in vivo, Setaria lutescens; conditions: Setaria, pre-emergence, 336 h; 0.25 lb/acre; read-out: percent preemergent control
Procedure, shortened: as §1

rape = assay: Preemergent control of plant species; format: in vivo, Brassica napus; conditions: Brassica napus, pre-emergence, 336 h; 0.25 lb/acre; read-out: percent preemergent control
Procedure, shortened: as §1

barnyardgrass = assay: Preemergent control of plant species; format: in vivo, Echinochloa crusgalli; conditions: Echinochloa crus-galli, pre-emergence, 336 h; 0.25 lb/acre; read-out: percent preemergent control
Procedure, shortened: as §1

jimsonweed = assay: Preemergent control of plant species; format: in vivo, Datura stramonium; conditions: Datura stramonium, pre-emergence, 336 h; 0.25 lb/acre; read-out: percent preemergent control
Procedure, shortened: as §1

yellow nutsedge = assay: Preemergent control of plant species; format: in vivo, Cyperus esculentus; conditions: Cyperus, pre-emergence, 336 h; 0.25 lb/acre; read-out: percent preemergent control
Procedure, shortened: as §1

johnson grass = assay: Preemergent control of plant species; format: in vivo, Sorghum halepense; conditions: Sorghum halepense, pre-emergence, 336 h; 0.25 lb/acre; read-out: percent preemergent control
Procedure, shortened: as §1

wild oats = assay: Preemergent control of plant species; format: in vivo; conditions: Avena fatua, pre-emergence, 336 h; 0.25 lb/acre; read-out: percent preemergent control
Procedure, shortened: as §1

[1] = test system: nitrification of ammonium nitrogen; assay: Suppression of nitrification of ammonium nitrogen in soil; conditions: 27° C.
Procedure, shortened: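 Soil (20 g) moistened to its 1/3 bar tension value, mixed with test chemical and incubated sealed for two weeks at 27° C. Nitrate extracted with ammonium sulfate solution and measured by nitrate-specific ion electrode; value given as % NH4-N remaining.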

Compound	plant injury at 280.212 g/ha (sugar beet) [%]	pest or weed control at 280.212 g/ha (annual morning glory) [%]	plant injury at 280.212 g/ha (cotton) [%]	plant injury at 280.212 g/ha (rice) [%]	pest or weed control at 280.212 g/ha (velvetleaf) [%]	plant injury at 280.212 g/ha (sorghum) [%]	plant injury at 280.212 g/ha (corn) [%]	pest or weed control at 280.212 g/ha (pigweed) [%]	plant injury at 280.212 g/ha (wheat) [%]	plant injury at 280.212 g/ha (soybean) [%]	pest or weed control at 280.212 g/ha (crabgrass) [%]	pest or weed control at 280.212 g/ha (yellow foxtail) [%]	plant injury at 280.212 g/ha (rape) [%]	pest or weed control at 280.212 g/ha (barnyardgrass) [%]	pest or weed control at 280.212 g/ha (jimsonweed) [%]	pest or weed control at 280.212 g/ha (yellow nutsedge) [%]	pest or weed control at 280.212 g/ha (johnson grass) [%]	pest or weed control at 280.212 g/ha (wild oats) [%]	% NH4-N Remaining After 2 Weeks Incubation ([1]; 0.01 ppm) [%]	% NH4-N Remaining After 2 Weeks Incubation ([1]; 0.1 ppm) [%]	other results
Cc1cc(C)n2nc(S(=O)(=O)Nc3cccc(Cl)c3Cl)nc2n1 [Compound 19]	90	50	90	20	70	0	0	90	0	20	20	0	95	0	0	40	0	0			
Cc1cc(C)n2nc(S(=O)(=O)Nc3ccccc3C(N)=O)nc2n1 [Compound 37]	97	90	95	97	95	95	95	100	0	95	70	97	95	97	100	100	95	0	0	0	% NH4-N Remaining After 2 Weeks Incubation ([1]; 1 ppm): 7%; % NH4-N Remaining After 2 Weeks Incubation ([1]; 10 ppm): 44%
Cc1cc(C)n2nc(S(=O)(=O)Nc3c(Cl)cc(F)cc3Cl)nc2n1 [Compound 44]	97	20	85	70	0	93	10	95	70	80	90	70	93	40	100	90	80	40	0	42	% NH4-N Remaining After 2 Weeks Incubation ([1]; 1 ppm): 71%; % NH4-N Remaining After 2 Weeks Incubation ([1]; 10 ppm): 95%
